Data from patent US20230348467A1, “Heteroaryl Derivative, Preparation Method Therefor, And Use Thereof” (Zhejiang Hisun Pharmaceutical Co., Ltd., priority 2020, published 2023).

Experiments:
[1] = target: recombinant human full-length SHP2 (Homo sapiens (Human), UniProt Q06124); test: Allosteric inhibition of full-length SHP2 enzyme (DiFMUP fluorescence); type: biochemical; conditions: full-length SHP2 0.5 nM, activating peptide 0.5 uM, DiFMUP substrate
Excerpt: The following method was used to determine the inhibition degrees of the compounds of the present invention on the activity of recombinant human full-length SHP2 in vitro. SHP2 was allosterically activated by the binding of di-tyrosyl-phosphorylated peptide to a Src homologous 2(SH2) domain of SHP2. An activation step of the latter leads to the self-inhibitory interface release of SHP2, and then activates SHP2 protein tyrosine phosphatase (PTP), which might be used for substrate recognition and reaction catalysis.
The experimental process was briefly described as follows: Test compounds were first dissolved in DMSO to prepare storage solutions. […] Then, the compounds to be tested were added in a concentration range of 0.00004-10 uM and incubated at 25° C. for 60 minutes. Then DiFMUP (Thermo, D6567) was added in the reaction and incubated at 25° C. for 30 minutes. After incubation, readings were taken using a microplate reader (BMG) with excitation and emission wavelengths of 340 nm and 450 nm, respectively.

[2] = system: NCI-H358 cells (containing KRAS G12C mutation); test: Inhibition of NCI-H358 cell proliferation (CellTiter-Glo); type: cell-based; conditions: Homo sapiens, NCI-H358, 120 h, read-out: IC50(nM)/NCI-H358
Description: (§1) The following method was used to determine the effects of the compounds of the present invention on NCI-H358 cell proliferation. NCI-H358 cells (containing KRAS G12C mutation) were purchased from Cell Resource Center of Shanghai Institutes for Biological Sciences, Chinese Academy of Sciences, and cultured in RPMI 1640 mediums containing 10% fetal bovine serum, 100 U penicillin, 100 μg/mL streptomycin and 1 mM Sodium Pyruvate. The activities of the cells were determined by CellTiter-Glo® Luminescent Cell Viability Assay kit (Promega, article number: G7573).
(§2) The experimental method was operated according to the steps in the kit instruction, and was briefly described as follows: test compounds were first dissolved in DMSO to prepare storage solutions of 10 mM, and then diluted in mediums, prepared as test samples. The final concentrations of the test compounds were 10,000 nM to 1.52 nM. The cells in logarithmic phase were inoculated in a 96-well cell culture plate with 1,000 cells per well, after cultured overnight in 5% CO2 incubator at 37° C., the test compounds were added to the incubator to continue the culture for 120 hours. After the culture, 50 μL of CellTiter-Glo detection solution was added to each well, shaken for 5 minutes, and then stood for 10 minutes. Then, a Luminescence mode was used to read the luminescence values of each well of the samples on a microplate reader. Compared with the numerical value of the control group (0.3% DMSO), the percentage inhibition rates of the compounds at each concentration were calculated, and the IC50 values of the compounds inhibiting cell proliferation were obtained by performing nonlinear regression analysis with logarithmic values of the compound concentration—inhibition rate by GraphPad Prism 5 software, which was shown in Table 3.

[3] = system: NCI-H23 cells (containing KRAS G12C mutation); test: Inhibition of NCI-H23 cell proliferation (CellTiter-Glo); type: cell-based; conditions: Homo sapiens, 120 hours culture
Description: as §1, with “NCI-H23” for “NCI-H358”
as §2, with “value of a control group” for “value of the control group”, “in Table 2.” for “in Table 3.”

[4] = Pharmacokinetic test in ICR mice, intragastric (Test Example 4); type: in vivo; conditions: PO
Excerpt: ICR mice were used as test animals, and LC/MS/MS methods was used to determine the drug concentrations at different moments in plasma of mice administered by intragastric injection with the compound 5 and the compound 6 of the present invention, and to study the pharmacokinetic characteristics of the compounds of the present invention in mice. An appropriate amount of drug was weighed, added with an appropriate amount of sodium carboxymethylcellulose (CMC-Na, containing 0.5% Tween 80), vortexed, and ultrasonically prepared into 1 mg/kg suspension. The ICR mice in the intragastric group of each compound to be tested (9 mice in each group) were fasted overnight and then administered by intragastric injection (PO, […], and administration volume of 10 mL/kg), and ate 4 hours after administration. About 0.2 mL of blood was collected via jugular vein before administration and 0.083 hour, 0.25 hour, 0.5 hour, 1 hour, 2 hours, 4 hours, 8 hours and 24 hours after administration, and heparin sodium was used for anticoagulation. The collected blood samples were placed on ice, and plasma was separated by centrifugation (centrifugation condition: 1,500 g, 10 minutes). The collected plasma samples were stored at −40° C. to −20° C. before analysis. LC-MS/MS was used to determine the contents of the compounds to be tested in mouse plasma after intragastric administration.

| SMILES | IC50 [1] [µM] | other results |
| --- | --- | --- |
| CC1(N)CCN(c2nc(C(N)=O)c3c(-c4cccc(Cl)c4Cl)n[nH]c3n2)CC1 [Example 2, 6-(4-amino-4-methylpiperidin-1-yl)-3-(2,3-dichlorophenyl)-1H-pyrazolo[3,4-d]pyrimidine-4-carboxamide] | 0.029 | – |
| NC(=O)c1nc(N2CCC3(CC2)Cc2ccccc2[C@H]3N)nc2[nH]nc(-c3cccc(Cl)c3Cl)c12 [Example 5, (S)-6-(1-amino-1,3-dihydrospiro[indene-2,4′-piperidin]-1′-yl)-3-(2,3-dichlorophenyl)-1H-pyrazolo[3,4-d]pyrimidine-4-carboxamide] | 0.001 | IC50 [2]: 27 nM; IC50 [3]: 143 nM; Pharmacokinetic properties (conclusion in words) [4]: good pharmacokinetic properties; AUC(0-inf) ([4]; mouse, 10 mg/kg per table (method text says 1 mg/kg), plasma, read-out: Area under curve AUC0-∞): 31300 ng·h/mL; Cmax ([4]; mouse, 10 mg/kg per table (method text says 1 mg/kg), plasma, read-out: Blood concentration Cmax): 2110 ng/mL |
| NC(=O)c1nc(N2[C@@H]3CC[C@H]2C[C@@H](N)C3)nc2[nH]nc(-c3cccc(Cl)c3Cl)c12 [Example 7, 6-((endo)-3-amino-8-azabicyclo[3.2.1]octan-8-yl)-3-(2,3-dichlorophenyl)-1H-pyrazolo[3,4-d]pyrimidine-4-carboxamide] | 0.014 | – |
| N[C@@H]1c2ccccc2CC12CCN(c1nc(C(=O)O)c3c(-c4cccc(Cl)c4Cl)n[nH]c3n1)CC2 [Example 9, (S)-6-(1-amino-1,3-dihydrospiro[indene-2,4′-piperidin]-1′-yl)-3-(2,3-dichlorophenyl)-1H-pyrazolo[3,4-d]pyrimidine-4-carboxylic acid] | 0.001 | IC50 [3]: 13 nM |
| NC(=O)c1nc(N2CCC(N)(CO)CC2)nc2[nH]nc(-c3cccc(Cl)c3Cl)c12 [Example 13, 6-(4-Amino-4-(hydroxymethyl)piperidin-1-yl)-3-(2,3-dichlorophenyl)-1H-pyrazolo[3,4-d]pyrimidine-4-carboxamide] | 0.01 | – |
| NC1(c2ccc(Cl)cc2)CCN(c2nc(C(=O)O)c3c(-c4cccc(Cl)c4Cl)n[nH]c3n2)CC1 [Example 24, 6-(4-amino-4-(4-chlorophenyl)piperidin-1-yl)-3-(2,3-dichlorophenyl)-1H-pyrazolo[3,4-d]pyrimidine-4-carboxylic acid] | 0.005 | – |
| Cc1cccc(-c2n[nH]c3nc(N4CCC(N)(c5ccccc5)CC4)nc(C(N)=O)c23)c1Cl [Example 29, 6-(4-amino-4-phenylpiperidin-1-yl)-3-(2-chloro-3-methylphenyl)-1H-pyrazolo[3,4-d]pyrimidine-4-carboxamide] | 0.003 | – |
| NC1(c2ccccc2)CCN(c2nc(-c3nnn[nH]3)c3c(-c4cccc(Cl)c4Cl)n[nH]c3n2)CC1 [Example 30, 1-(3-(2,3-dichlorophenyl)-4-(1H-tetrazol-5-yl)-1H-pyrazolo[3,4-d]pyrimidin-6-yl)-4-phenylpiperidin-4-amine] | 0.003 | – |
| NC(=O)c1nc(N2CCC(N)(c3ccccc3)CC2)nc2[nH]cc(-c3cccc(Cl)c3Cl)c12 [Example 53, 2-(4-amino-4-phenylpiperidin-1-yl)-5-(2,3-dichlorophenyl)-7H-pyrrolo[2,3-d]pyrimidine-4-carboxamide] | 0.011 | – |
| Cc1nc(N2CCC3(CC2)CO[C@@H](C)[C@H]3N)c(CO)nc1-c1cccc(Cl)c1Cl [RMC-4550, reference compound] | – | IC50 [2]: 80 nM; IC50 [3]: 240 nM |

Further compounds by falling IC50 [1], results first:

| IC50 [1] [µM] | SMILES | other results |
| --- | --- | --- |
| 0.027 | NC(=O)c1nc(N2CCC(N)(c3ccccn3)CC2)nc2[nH]nc(-c3cccc(Cl)c3Cl)c12 [Example 38, 6-(4-amino-4-(pyridin-2-yl)piperidin-1-yl)-3-(2,3-dichlorophenyl)-1H-pyrazolo[3,4-d]pyrimidine-4-carboxamide] | – |
| 0.024 | NC(=O)c1nc(N2CCC(N)CC2)nc2[nH]nc(-c3cccc(Cl)c3Cl)c12 [Example 15, 6-(4-Aminopiperidin-1-yl)-3-(2,3-dichlorophenyl)-1H-pyrazolo[3,4-d]pyrimidine-4-carboxamide] | – |
| 0.017 | NC(=O)c1nc(N2CCC(N)(c3c(F)cccc3F)CC2)nc2[nH]nc(-c3cccc(Cl)c3Cl)c12 [Example 11, 6-(4-amino-4-(2,6-difluorophenyl)piperidin-1-yl)-3-(2,3-dichlorophenyl)-1H-pyrazolo[3,4-d]pyrimidine-4-carboxamide] | – |
| 0.01 | COc1nccc(-c2n[nH]c3nc(N4CCC(N)(c5ccccc5F)CC4)nc(C(N)=O)c23)c1Cl [Example 32, 6-(4-amino-4-(2-fluorophenyl)piperidin-1-yl)-3-(3-chloro-2-methoxypyridin-4-yl)-1H-pyrazolo[3,4-d]pyrimidine-4-carboxamide] | – |
| 0.008 | CC1(N)CCN(c2nc(C(N)=O)c3c(-c4cccc(Br)c4Cl)n[nH]c3n2)CC1 [Example 12, 6-(4-amino-4-methylpiperidin-1-yl)-3-(3-bromo-2-chlorophenyl)-1H-pyrazolo[3,4-d]pyrimidine-4-carboxamide] | – |
| 0.005 | NC(=O)c1nc(N2[C@@H]3CC[C@H]2C[C@H](N)C3)nc2[nH]nc(-c3cccc(Cl)c3Cl)c12 [Example 8, 6-((exo)-3-amino-8-azabicyclo[3.2.1]octan-8-yl)-3-(2,3-dichlorophenyl)-1H-pyrazolo[3,4-d]pyrimidine-4-carboxamide] | – |
| 0.005 | NC1(c2cccc(Cl)c2)CCN(c2nc(C(=O)O)c3c(-c4cccc(Cl)c4Cl)n[nH]c3n2)CC1 [Example 25, 6-(4-amino-4-(3-chlorophenyl)piperidin-1-yl)-3-(2,3-dichlorophenyl)-1H-pyrazolo[3,4-d]pyrimidine-4-carboxylic acid] | – |
| 0.003 | COc1ccc(C2(N)CCN(c3nc(C(N)=O)c4c(-c5cccc(Cl)c5Cl)n[nH]c4n3)CC2)cc1 [Example 46, 6-(4-amino-4-(4-methoxyphenyl)piperidin-1-yl)-3-(2,3-dichlorophenyl)-1H-pyrazolo[3,4-d]pyrimidine-4-carboxamide] | – |
| 0.002 | NC1(c2ccccc2Cl)CCN(c2nc(C(=O)O)c3c(-c4cccc(Cl)c4Cl)n[nH]c3n2)CC1 [Example 23, 6-(4-amino-4-(2-chlorophenyl)piperidin-1-yl)-3-(2,3-dichlorophenyl)-1H-pyrazolo[3,4-d]pyrimidine-4-carboxylic acid] | – |
